Laboratory results from patent US20220143198A1, “COMPOSITIONS AND METHODS RELATED TO TETHERED KETHOXAL DERIVATIVES” (The University of Chicago, priority 2019, published 2022).

Legend:
[1] = tested on: guanosine; test: Reversibility of kethoxal derivatives by adjusting pH (kethoxal-guanosine adduct dissociation); type: physicochemical
[2] = tested on: guanosine; test: Reactivity of kethoxal derivatives with guanosine (conversion rates of guanosine); type: biochemical
[3] = tested on: guanosine; test: Reversibility of kethoxal derivatives using GTP for competition (LCMS of free guanosine); type: physicochemical; conditions: 1:1 ratio
[4] = pH = 7.8, S1:S2 = 2:1 (S1 guanosine, S2 kethoxal derivative)
[5] = pH = 7.0, 10 min, excess GTP added after 10 min
[6] = pH = 7.0, 2 h, excess GTP competitor
[7] = pH = 7.0, 24 h, excess GTP competitor

Row | Structure (SMILES) | Conversion rate of guanosine ([2]; pH = 7.8, S1:S2 = 1:1) [%] | Conversion rate of guanosine ([2]; pH = 7.8, S1:S2 = 1:2) [%] | Conversion rate of guanosine [2, 4] [%] | Conversion of guanosine under competition condition [3, 5] [%] | Conversion of guanosine under competition condition [3, 6] [%] | Conversion of guanosine under competition condition [3, 7] [%] | Conversion rate of guanosine ([2]; pH = 7.0, S1:S2 = 1:1) [%] | Conversion rate of guanosine ([2]; pH = 7.0, S1:S2 = 1:2) [%] | Conversion rate of guanosine ([2]; pH = 7.0, S1:S2 = 2:1) [%] | further results
1 | [N-]=[N+]=NCCOC(F)(F)C(=O)C=O [drawing 75] |  |  |  |  |  |  |  |  |  | Conversion of guanosine ([1]; pH = 5.8, 10 min after adjusting from pH 10.1, 1:1 ratio): 49.2%; Conversion of guanosine ([1]; pH = 5.8, 4 h after adjusting from pH 10.1, 1:1 ratio): 55.1%; Conversion of guanosine ([1]; pH = 5.8, 24 h after adjusting from pH 10.1, 1:1 ratio): 54.7%; Conversion of guanosine ([1]; pH = 10.1, 10 min, kethoxal derivative and guanosine 1:1): 41.5%
2 | [N-]=[N+]=NCCCC(=O)C=O [drawing 39] | 48.0 | 70.5 | 23.8 |  |  |  |  |  |  | Conversion rate of guanosine ([2]; pH = 7.8, S1:S2 = 1:3): 88.9%; Conversion rate of guanosine ([2]; pH = 7.8, S1:S2 = 1:5): 89.2%
3 | CC(OC(=O)CN=[N+]=[N-])C(=O)C=O (stereo not shown) [drawing 80] |  |  |  | 54.4 | 44.6 | 37.5 |  |  |  | 
4 | CC(C)(OCCN=[N+]=[N-])C(=O)C=O [drawing 78] |  |  |  | 51.6 | 55.9 | 33.6 |  |  |  | 
5 | [N-]=[N+]=NCCOCCC(=O)C=O [drawing 41] | 41.1 | 60.0 | 25.2 |  |  |  |  |  |  | Conversion rate of guanosine ([2]; pH = 7.8, S1:S2 = 1:3): 66.4%; Conversion rate of guanosine ([2]; pH = 7.8, S1:S2 = 1:5): 73.6%
6 | [N-]=[N+]=NCCOCC(=O)C=O [drawing 33] | 78.6 | 95.4 | 51.3 |  |  |  |  |  |  | 
7 | CC(C)(OCCN=[N+]=[N-])C(=O)C=O [drawing 47] |  |  |  |  |  |  | 46.7 | 76.6 | 23.6 | 
8 | CC(Br)C(=O)C=O (stereo not shown) [drawing 36] | 67.2 | 89.9 | 35.8 |  |  |  |  |  |  | Conversion rate of guanosine ([2]; pH = 7.8, S1:S2 = 1:3): 92.2%
9 | O=CC(=O)c1ccccc1 [phenyl-substituted kethoxal derivative] | 32.2 | 51.2 |  |  |  |  | 18.8 | 37.6 |  | Conversion rate of guanosine ([2]; pH = 7.0, S1:S2 = 1:3): 51.0%; Conversion rate of guanosine ([2]; pH = 7.0, S1:S2 = 1:5): 67.0%; Conversion rate of guanosine ([2]; pH = 7.8, S1:S2 = 1:3): 66.2%; Conversion rate of guanosine ([2]; pH = 7.8, S1:S2 = 1:5): 80.1%
10 | O=CC(=O)c1ccccc1 [drawing 57] |  |  |  |  |  |  | 22.5 | 33.2 | 9.9 | Conversion rate of guanosine ([2]; pH = 7.0, S1:S2 = 1:4): 51.5%
11 | [N-]=[N+]=NCCOCC(=O)C=O [drawing 79] |  |  |  | 47.4 | 29.7 | 27.4 |  |  |  | 
12 | CC(Br)C(=O)C=O (stereo not shown) [drawing 82] |  |  |  | 46.2 | 38.2 | 18.6 |  |  |  | 
13 | CC(OCCN=[N+]=[N-])C(=O)C=O (stereo not shown) [drawing 77] |  |  |  | 71.4 | 60.8 | 28.9 |  |  |  | 
14 | [N-]=[N+]=NCCOCC(=O)C=O [drawing 48] |  |  |  |  |  |  | 52.2 | 79.2 | 30.3 | 
15 | [N-]=[N+]=NCCOC(F)(F)C(=O)C=O [drawing 44] | 14.7 | 28.9 | 8.5 |  |  |  |  |  |  | Conversion rate of guanosine ([2]; pH = 7.8, S1:S2 = 1:3): 38.7%; Conversion rate of guanosine ([2]; pH = 7.8, S1:S2 = 1:5): 63.1%
16 | [N-]=[N+]=NCCOC(F)(F)C(=O)C=O [drawing 59] |  |  |  |  |  |  | 1.4 | 1.9 | 0 | Conversion rate of guanosine ([2]; pH = 7.0, S1:S2 = 1:0): 9.8%; Conversion rate of guanosine ([2]; pH = 7.0, S1:S2 = 1:4): 3.8%
17 | CCN(CC)C(C)C(=O)C=O (stereo not shown) |  |  |  | 66.9 | 66.1 | 36.3 |  |  |  | 
18 | O=CC(=O)Cc1ccccc1 [drawing 60] |  |  |  |  |  |  | 22.5 | 30.4 | 9.0 | 
19 | CC(OCCN=[N+]=[N-])C(=O)C=O (stereo not shown) [drawing 31] | 86.9 | 97.4 | 51.6 |  |  |  |  |  |  | 
20 | CC(Br)C(=O)C=O (stereo not shown) [drawing 51] |  |  |  |  |  |  | 40.4 | 81.2 | 22.4 | 
21 | [N-]=[N+]=NCCOCCC(=O)C=O [drawing 56] |  |  |  |  |  |  | 38.3 | 49.6 | 16.8 | 
22 | CC(OC(=O)CN=[N+]=[N-])C(=O)C=O (stereo not shown) [drawing 34] | 77.5 | 92.1 | 43.6 |  |  |  |  |  |  | 
23 | [N-]=[N+]=NCCOCCC(=O)C=O [drawing 87] |  |  |  | 41.3 | 12.6 | 11.2 |  |  |  | 
